Source: paper PMC8449129, “Single tracer-based protocol for broad-spectrum kinase profiling in live cells with NanoBRET” (STAR Protocols, 2021)

How the values were obtained:
Test in all cases: cell-based
Parameters in all cases: NanoBRET live-cell target engagement; % occupancy from displacement of tracer K10 on NanoLuc-kinase fusions, mean n=3
Settings in all cases: HEK293, read-out: % inhibition
[1] = biological target: CSNK2A2 (Homo sapiens, UniProt P19784)
Summary of the method: (§1)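 Live-cell NanoBRET target engagement: cells expressing kinase–NanoLuc fusion with tracer treated with compound 2 h at 37 °C, 5% CO2. BRET read from donor (450 nm) and acceptor (610/630 nm) emission with 20 μM extracellular NanoLuc inhibitor; % occupancy calculated relative to tracer+DMSO and zero-BRET controls.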

[2] = biological target: TLK2 (Homo sapiens, UniProt Q86UE8)
Summary of the method: as §1

[3] = biological target: NEK1 (Homo sapiens, UniProt Q96PY6)
NEK1, sequence (Q96PY6 whole entry): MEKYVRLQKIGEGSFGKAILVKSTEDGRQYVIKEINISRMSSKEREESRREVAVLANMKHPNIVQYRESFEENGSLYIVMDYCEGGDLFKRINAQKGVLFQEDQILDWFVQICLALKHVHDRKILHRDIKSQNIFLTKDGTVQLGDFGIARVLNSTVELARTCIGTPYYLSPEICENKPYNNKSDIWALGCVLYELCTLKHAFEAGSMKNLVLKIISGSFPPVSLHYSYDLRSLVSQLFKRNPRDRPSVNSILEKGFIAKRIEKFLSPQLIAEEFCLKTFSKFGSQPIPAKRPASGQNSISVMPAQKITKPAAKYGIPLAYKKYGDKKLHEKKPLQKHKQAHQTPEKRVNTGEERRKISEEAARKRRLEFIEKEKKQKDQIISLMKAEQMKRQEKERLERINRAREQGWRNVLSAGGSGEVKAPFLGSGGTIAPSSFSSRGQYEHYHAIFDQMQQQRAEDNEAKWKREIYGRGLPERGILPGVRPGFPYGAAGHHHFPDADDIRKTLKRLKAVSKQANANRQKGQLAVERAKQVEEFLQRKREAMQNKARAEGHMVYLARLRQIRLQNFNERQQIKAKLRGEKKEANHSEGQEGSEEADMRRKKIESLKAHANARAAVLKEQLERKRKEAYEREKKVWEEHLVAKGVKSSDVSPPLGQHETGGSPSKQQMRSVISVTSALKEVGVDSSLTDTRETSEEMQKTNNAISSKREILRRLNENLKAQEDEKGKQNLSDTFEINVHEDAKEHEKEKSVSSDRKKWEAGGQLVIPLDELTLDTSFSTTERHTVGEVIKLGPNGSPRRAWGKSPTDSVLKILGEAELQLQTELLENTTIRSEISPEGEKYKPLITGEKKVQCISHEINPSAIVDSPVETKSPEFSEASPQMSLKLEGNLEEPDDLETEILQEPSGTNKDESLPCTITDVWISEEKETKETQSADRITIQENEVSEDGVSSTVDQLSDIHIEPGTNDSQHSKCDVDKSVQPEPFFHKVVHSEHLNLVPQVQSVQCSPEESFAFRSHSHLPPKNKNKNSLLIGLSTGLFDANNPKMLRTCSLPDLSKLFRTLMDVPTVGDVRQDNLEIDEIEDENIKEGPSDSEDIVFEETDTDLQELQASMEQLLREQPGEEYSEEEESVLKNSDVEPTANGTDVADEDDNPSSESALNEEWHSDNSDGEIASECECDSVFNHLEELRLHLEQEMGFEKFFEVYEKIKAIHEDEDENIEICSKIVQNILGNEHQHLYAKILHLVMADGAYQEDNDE
Summary of the method: as §1

[4] = biological target: MYLK3 (Homo sapiens, UniProt Q32MK0)
Summary of the method: as §1

[5] = biological target: RIPK1 (Homo sapiens, UniProt Q13546)
Summary of the method: as §1

[6] = biological target: PHKG1 (Homo sapiens, UniProt Q16816)
PHKG1, sequence (Q16816 whole entry): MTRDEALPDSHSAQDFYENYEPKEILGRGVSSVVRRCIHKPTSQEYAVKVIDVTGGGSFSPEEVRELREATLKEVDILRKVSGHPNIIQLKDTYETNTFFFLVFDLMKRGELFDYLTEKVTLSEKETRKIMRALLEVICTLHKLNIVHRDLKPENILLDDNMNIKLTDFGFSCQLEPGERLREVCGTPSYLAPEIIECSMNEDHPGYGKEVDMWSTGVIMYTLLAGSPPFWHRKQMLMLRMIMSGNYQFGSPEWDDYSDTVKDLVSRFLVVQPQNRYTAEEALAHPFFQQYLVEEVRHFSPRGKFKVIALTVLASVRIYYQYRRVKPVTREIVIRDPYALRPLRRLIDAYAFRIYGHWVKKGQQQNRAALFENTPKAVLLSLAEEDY
Summary of the method: as §1

[7] = biological target: PRKACB (Homo sapiens, UniProt P22694)
Summary of the method: as §1

[8] = biological target: TXK (Homo sapiens, UniProt P42681)
Summary of the method: as §1

[9] = biological target: ERN1 (Homo sapiens, UniProt O75460)
Summary of the method: as §1

[10] = biological target: SIK1 (Homo sapiens, UniProt P57059)
Summary of the method: as §1

[11] = biological target: T1, MLTK (Homo sapiens, UniProt Q9NYL2)
T1 construct: gene MAP3K20
T1 sequence (Q9NYL2 whole entry): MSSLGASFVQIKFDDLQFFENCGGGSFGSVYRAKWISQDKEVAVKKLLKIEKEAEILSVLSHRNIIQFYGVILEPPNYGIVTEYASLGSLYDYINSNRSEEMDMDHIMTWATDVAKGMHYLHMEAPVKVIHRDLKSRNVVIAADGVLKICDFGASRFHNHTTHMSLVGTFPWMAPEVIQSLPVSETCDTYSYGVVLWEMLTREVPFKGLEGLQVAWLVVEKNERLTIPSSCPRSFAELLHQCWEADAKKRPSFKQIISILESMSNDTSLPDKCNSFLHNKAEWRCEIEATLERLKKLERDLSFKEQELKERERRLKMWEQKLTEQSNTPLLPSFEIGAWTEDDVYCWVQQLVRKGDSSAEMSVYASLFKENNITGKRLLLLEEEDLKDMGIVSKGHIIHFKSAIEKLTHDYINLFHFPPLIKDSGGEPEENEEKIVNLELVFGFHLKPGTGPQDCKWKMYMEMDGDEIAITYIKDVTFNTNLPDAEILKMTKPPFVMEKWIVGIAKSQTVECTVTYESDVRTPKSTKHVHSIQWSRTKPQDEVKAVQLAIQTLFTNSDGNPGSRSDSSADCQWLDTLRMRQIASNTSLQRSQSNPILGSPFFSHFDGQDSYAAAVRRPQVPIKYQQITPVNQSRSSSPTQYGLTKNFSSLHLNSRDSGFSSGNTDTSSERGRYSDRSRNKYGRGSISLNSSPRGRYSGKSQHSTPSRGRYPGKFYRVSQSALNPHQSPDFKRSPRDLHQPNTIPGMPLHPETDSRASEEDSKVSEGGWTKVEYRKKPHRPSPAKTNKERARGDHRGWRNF
Summary of the method: as §1

[12] = biological target: CSNK2A1 (Homo sapiens, UniProt P68400)
CSNK2A1, sequence (P68400 whole entry): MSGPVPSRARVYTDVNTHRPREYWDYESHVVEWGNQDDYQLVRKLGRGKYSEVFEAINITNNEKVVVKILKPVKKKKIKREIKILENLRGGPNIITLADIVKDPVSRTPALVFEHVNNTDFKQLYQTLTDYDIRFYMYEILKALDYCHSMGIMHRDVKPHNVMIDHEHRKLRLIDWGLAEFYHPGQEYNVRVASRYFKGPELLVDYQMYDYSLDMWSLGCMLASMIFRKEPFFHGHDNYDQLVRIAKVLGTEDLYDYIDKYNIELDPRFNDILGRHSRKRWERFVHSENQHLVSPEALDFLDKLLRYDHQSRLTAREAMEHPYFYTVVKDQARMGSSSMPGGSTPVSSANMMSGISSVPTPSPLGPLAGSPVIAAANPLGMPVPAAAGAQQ
Summary of the method: as §1

[13] = biological target: SLK (Homo sapiens, UniProt Q9H2G2)
SLK, sequence (Q9H2G2 whole entry): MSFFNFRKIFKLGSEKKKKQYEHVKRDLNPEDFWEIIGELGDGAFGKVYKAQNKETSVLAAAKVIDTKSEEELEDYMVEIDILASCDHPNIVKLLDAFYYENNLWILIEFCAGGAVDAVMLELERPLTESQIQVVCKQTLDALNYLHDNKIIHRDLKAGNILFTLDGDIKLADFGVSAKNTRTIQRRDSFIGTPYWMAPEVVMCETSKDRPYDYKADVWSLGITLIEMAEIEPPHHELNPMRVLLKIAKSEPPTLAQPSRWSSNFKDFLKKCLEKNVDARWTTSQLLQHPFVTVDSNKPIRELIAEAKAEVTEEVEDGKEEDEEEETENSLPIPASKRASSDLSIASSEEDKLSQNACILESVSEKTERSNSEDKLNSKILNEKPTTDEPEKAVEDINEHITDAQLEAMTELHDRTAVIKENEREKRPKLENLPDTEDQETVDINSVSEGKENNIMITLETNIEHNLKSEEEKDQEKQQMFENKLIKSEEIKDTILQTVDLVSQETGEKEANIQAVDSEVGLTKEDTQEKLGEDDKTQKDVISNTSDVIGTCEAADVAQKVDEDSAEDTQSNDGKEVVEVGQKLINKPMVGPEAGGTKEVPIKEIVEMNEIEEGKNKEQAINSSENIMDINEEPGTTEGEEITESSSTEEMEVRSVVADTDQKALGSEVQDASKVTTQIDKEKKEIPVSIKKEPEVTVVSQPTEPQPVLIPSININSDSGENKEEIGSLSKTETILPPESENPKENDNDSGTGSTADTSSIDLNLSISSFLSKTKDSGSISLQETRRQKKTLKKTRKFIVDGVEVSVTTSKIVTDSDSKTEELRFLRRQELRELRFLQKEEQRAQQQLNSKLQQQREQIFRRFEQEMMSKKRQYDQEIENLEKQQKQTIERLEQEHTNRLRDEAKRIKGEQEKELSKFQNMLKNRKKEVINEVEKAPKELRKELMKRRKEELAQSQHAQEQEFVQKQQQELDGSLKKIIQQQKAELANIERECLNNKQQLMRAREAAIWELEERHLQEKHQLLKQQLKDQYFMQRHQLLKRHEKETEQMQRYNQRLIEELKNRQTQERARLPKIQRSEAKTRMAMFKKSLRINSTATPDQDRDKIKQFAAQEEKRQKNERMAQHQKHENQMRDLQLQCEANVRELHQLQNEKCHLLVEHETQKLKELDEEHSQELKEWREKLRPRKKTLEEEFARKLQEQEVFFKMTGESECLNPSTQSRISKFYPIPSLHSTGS
Summary of the method: as §1

[14] = biological target: LATS2 (Homo sapiens, UniProt Q9NRM7)
Summary of the method: as §1

[15] = biological target: CDK10 (Homo sapiens, UniProt Q15131)
CDK10, sequence (Q15131 whole entry): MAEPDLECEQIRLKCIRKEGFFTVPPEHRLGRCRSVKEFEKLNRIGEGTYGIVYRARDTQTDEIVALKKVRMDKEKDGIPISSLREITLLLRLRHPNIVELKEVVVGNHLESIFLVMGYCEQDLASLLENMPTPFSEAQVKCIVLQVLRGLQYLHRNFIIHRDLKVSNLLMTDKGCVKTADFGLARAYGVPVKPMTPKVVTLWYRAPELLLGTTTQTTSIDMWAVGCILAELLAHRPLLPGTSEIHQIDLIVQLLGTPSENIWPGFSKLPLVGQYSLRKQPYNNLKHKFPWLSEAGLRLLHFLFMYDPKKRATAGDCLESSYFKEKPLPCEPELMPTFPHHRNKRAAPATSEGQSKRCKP
Summary of the method: as §1

[16] = biological target: CDK3 (Homo sapiens, UniProt Q00526)
Summary of the method: as §1

[17] = biological target: MAP3K11 (Homo sapiens, UniProt Q16584)
Summary of the method: as §1

[18] = biological target: STK38 (Homo sapiens, UniProt Q15208)
STK38, sequence (Q15208 whole entry): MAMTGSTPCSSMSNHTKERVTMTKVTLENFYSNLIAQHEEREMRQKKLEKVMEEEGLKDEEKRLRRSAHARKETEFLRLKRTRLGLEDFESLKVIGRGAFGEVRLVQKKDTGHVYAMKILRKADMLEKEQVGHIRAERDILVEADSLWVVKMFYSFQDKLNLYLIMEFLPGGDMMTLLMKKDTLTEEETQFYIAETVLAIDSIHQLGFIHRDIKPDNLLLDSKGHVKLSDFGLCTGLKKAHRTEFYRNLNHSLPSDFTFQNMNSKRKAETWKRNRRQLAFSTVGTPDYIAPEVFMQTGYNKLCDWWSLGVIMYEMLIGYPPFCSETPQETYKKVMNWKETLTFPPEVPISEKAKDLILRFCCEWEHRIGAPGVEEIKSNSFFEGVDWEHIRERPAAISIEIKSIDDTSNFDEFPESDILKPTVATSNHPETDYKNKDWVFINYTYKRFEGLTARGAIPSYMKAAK
Summary of the method: as §1

C[C@@H](Oc1cc(-c2cnn(C3CCNCC3)c2)cnc1N)c1c(Cl)ccc(F)c1Cl [crizotinib]
inhibition at 1 µM [1]: -14%
inhibition at 1 µM [2]: 0%
inhibition at 1 µM [3]: 3%
inhibition at 1 µM [4]: -8%
inhibition at 1 µM [5]: 23%
inhibition at 1 µM [6]: -3%
inhibition at 1 µM [7]: 5%
inhibition at 1 µM [8]: 18%
inhibition at 1 µM [9]: -3%
inhibition at 1 µM [10]: -4%
inhibition at 1 µM [11]: -3%
inhibition at 1 µM [12]: 5%
inhibition at 1 µM [13]: 36%
inhibition at 1 µM [14]: -10%
inhibition at 1 µM [15]: 8%
inhibition at 1 µM [16]: 6%
inhibition at 1 µM [17]: 0%
inhibition at 1 µM [18]: 1%
